Legend:
C. elegans = test: Autophagic flux and lysosomal reporters in C. elegans; type: in vivo
Description: FIGS. 12A-12B illustrate that coumarin 106 (“C1”, “AIC106”) promotes induction of autophagic markers. FIG. 12A) Increased APG:APL fusion as assessed by green to red fluorescence shift following addition of 20 μM C1 versus DMSO-only control to ttdLGG-1:GFP worms expressing a pH sensitive GFP. FIG. 12B) Increases in autophagic flux as assessed by increased GFP fluorescence within p62::GFP and plmp-1::GFP expressing worms following addition of 20 μM C1 versus DMSO-only controls.
FIG. 19, panels A-G: AIC106 increases autophagic flux and lysosomal function in C. elegans. Panel A) Relative fold change in mRNA of autophagosome-specific protein p62/Sqstm-1 compared to DMSO-control was quantified using qRT-PCR in young adult wild-type N2 worms post-24 hours treatment with AIC106. [N=3 independent experiments (mean±SD). *p<0.05 and **p<0.01, by one-way ANOVA with Sidak's multiple comparisons test]. Panel B) Changes in p62/SQSTM-1 expression were measured by quantifying GFP intensity in an individual GFP-tagged p62/SQSTM-1 worm (HZ589) post-24 hours treatment with AIC106 and DMSO-control, followed by RNAi treatment. [N=3 independent experiments (mean±SD). ****p<0.0001, by one-way ANOVA with Tukey's multiple comparisons test]. Panel C) p62/SQSTM-1; GFP (HZ589) was monitored by fluorescence microscopy. Panel D) Changes in lysosomal number were measured by quantifying GFP intensity in an individual GFP-tagged LMP-1 worm (RT258) post-24 hours treatment with AIC106 and DMSO-control. [N=3 independent experiments (mean±SD). ****p<0.0001, by unpaired t-test]. Panel E) RT258 worms were monitored by fluorescence microscopy. Panel F) Changes in lysosomal number were measured by quantifying fluorescence intensity in an individual Lysotracker Red stained wild type N2 worms post-24 hours treatment with AIC106 and DMSO-control. [N=3 independent experiments (mean±SD). ****p<0.0001, by unpaired t-test]. Panel G) Lysotracker Red stained wild type N2 worms were monitored by fluorescence microscopy.
FIG. 26, panels A-B: AIC106 enhances autophagy flux in C. elegans. Panel A) Monitoring of tandem reporter lgg-1p::mCherry::GFP::lgg-1 expressing worms was performed by fluorescence microscopy. Panel B) Effects of AIC106 treatment on GFP and mCherry by time were measured by fluorescence microscopy after AIC106 or DMSO-control treatment for 24 h. [N=3 independent experiments (mean±SD). *p<0.05 and **p<0.01, by unpaired t-test].
Synchronized populations of day-1 adult worms expressing reporter GFP transgene or stained with a dye/stain (Lysotracker and TMRM) and grown at 20° C. were transferred to compound or DMSO plates. Fluorescence expression was analyzed at the time specified for each individual strain (see figure legends). Worms were paralyzed in 2 mM levamisole, mounted on 2% agarose pads with glass cover slips, and imaged immediately with an Axio Zeiss microscope. Appropriate filters were used to visualize GFP, Lysotracker red and TMRM were visualized under rhodamine filter. Approximately 20-40 worms per treatment were used. Fluorescence intensity normalized to worm area was measured using NIH ImageJ software. Transgenic reporters used in the study are HZ589 him-5(e1490) V; bpIs151[sqst-1p::sqst-1::GFP+unc-76(+)], RT258 unc-119(ed3) III; pwIs50 [lmp-1::GFP+Cbr-unc-119(+)], UA44 UA44(baIn11[Pdat-1::α-syn, Pdat-1::GFP]), AM141 rmIs133 [unc-54p::Q40::YFP]LAMP-1:GFP.
Synchronized day-1 adult N2 worms were transferred to DMSO control or compound treated plates for 24 hours at 20° C. On day-2, worms were transferred to 35 mm OP50 seeded assay plates treated with compound or DMSO plates overlaid with 1 μM LysoTracker™ Red DND-99 (Molecular Probes) for 24 hours at 20° C. Post-24 hours on LysoTracker stain, worms were picked and washed in a fresh drop of 1×M9 medium to remove excess stain and mounted on 2% agarose pad slides for microscopic visualization. Worm images were taken in a Zeiss Imager Z1 fluorescence microscope using rhodamine filters. […]

TFEB = TFEB activation screen, % activation/control at 24 and 48 hrs (Table 1); type: cell-based, human
Description: FIG. 25, panels A-B::AIC106 identified as a lead compound in a TFEB-transcription based screen. Panel A) Rat Neuronal N27 cells were transfected with a vector construct driving expression of secreted-Gaussia luciferase (Sec-Gaussia) in control of 2 kb human TFEB promoter. Next day, cells were seeded into 96-well cell culture plate and exposed to compounds (30 μM) from natural product library (NPL-640) or DMSO-control. After 24 and 48 hours of compound treatment supernatant from the cells was collected and TFEB promoter activity determined by quantifying luciferase activity. Panel B) Effects of AIC106 treatment on HLH-30 expression after 24 hours treatment were determined by immunoblot against GFP in young adult stage of GFP-tagged HLH-30 strain (MAH235) following total protein extraction.
It was discovered that small structural alterations in the C1 compound can have significant effects on the degree of TFEB activation (see, e.g., FIG. 17) the screening systems described herein identified a number of structures related to C1 that similarly induce TFEB.
In vitro drug screening studies. […] We utilized for these studies a 3000 compound natural product derivative library (Timtec, Newark, DE) in […] transfected with a sensitive TFEB promotor-Gaussian luciferase construct. […] C1 is a coumarin-related compound, part of a family of natural benzopyrones found in many edible plants.
To identify novel transcriptional inducers of TFEB, we transfected rat neuronal N27 cells with a vector driving expression of secreted-luciferase under control of the human TFEB promoter. […] AIC106 belongs to a family of coumarin compounds containing an active benzopyrone ring.

What does the source list for `O=c1oc2c3c4c(cc2c2c1CCC2)CCCN4CCC3` [C1, 2,3,6,7,10,11-Hexahydro-1H,5H-cyclopenta(3,4)(1)benzopyrano(6,7,8-ij)quinolizin-12(9H)-one]?
autophagic flux (C. elegans; 20 μM C1 (FIG. 12)): increased autophagic flux; tandem mCherry-GFP-LGG-1 reporter (autophagosomal:lysosomal fusion) (C. elegans; 24 h (FIG. 26)): decreased GFP intensity in conjunction with significant increase in mCherry-only intensity; p62/SQSTM-1 protein levels (GFP) (C. elegans; HZ589 worms, 24 hours): enhanced p62/SQSTM-1 protein levels; lysosomal biogenesis by LysoTracker red staining (C. elegans; N2 worms): validated via LysoTracker red staining; p62/Sqstm-1 mRNA (C. elegans; N2 worms, 24 hours): increased mRNA levels of p62/Sqstm-1; lysosomal biogenesis (GFP-tagged LAMP-1/LMP-1) (C. elegans; RT258 worms, 24 hours): increase in lysosomal biogenesis; % activation/Control 24 hrs (TFEB; 24 hrs): 350.83%; % activation/Control 48 hrs (TFEB; 48 hrs): 413.96%

Reference: patent US12673039B2, “Methods of inducing autophagy using coumarin derivatives and related compounds” (Buck Institute for Research on Aging, priority 2019, dated 2026)
